Patent US4820695A, “C-20-dihydro-deoxy-(cyclic amino)-derivatives of macrolide antibiotics” (priority 1987, dated 1989)
Values after ≈ are worked out from the molar mass of the structure shown. Read-outs that look alike come from different tables or passages of the source.

Columns and labels:
[1] = system: Streptococcus pyogenes C203; assay: MIC, standard agar-dilution assay (Table IX); type: cell-based; conditions: read-out: MIC
[2] = system: Staphylococcus epidermidis 222; assay: MIC, standard agar-dilution assay (Table IX); type: cell-based; conditions: read-out: MIC
[3] = system: Staphylococcus aureus V41; assay: MIC, standard agar-dilution assay (Table IX); type: cell-based; conditions: Staphylococcus aureus V41, Penicillin-resistant strain, read-out: MIC
[4] = system: Escherichia coli TEM; assay: MIC, standard agar-dilution assay (Table IX); type: cell-based; conditions: read-out: MIC
[5] = system: Staphyloccus aureus X1.1; assay: MIC, standard agar-dilution assay (Table IX); type: cell-based, Staphylococcus aureus; conditions: Staphylococcus aureus, read-out: MIC
[6] = system: Streptococcus pyogenes C203; assay: ED50 in mice experimentally infected with S. pyogenes C203 (Table XI); type: in vivo; conditions: Streptococcus pyogenes, doses given 1 and 4 hours postinfection, read-out: ED50
Method in brief: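 Protective ED50 (mg/kg × 2) was determined as the dose sparing half the animals. Test compound was given twice, at 1 and 4 hours after experimental S. pyogenes C203 infection of mice.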

[7] = system: Staphylococcus epidermidis EPI1; assay: MIC, standard agar-dilution assay (Table IX); type: cell-based
[8] = system: Pasteurella multocida; assay: Pasteurella infection in one-day-old chicks, medicated drinking water (Table XIII); type: in vivo; conditions: Administered in the available drinking water at 2 g/gal
Method: (§1) Many of the C-20 modified derivatives of this invention have also shown in vivo antibacterial activity against infections induced by gram-negative bacteria. Tables XII and XIII summarize the results of tests in which illustrative compounds were evaluated against a Pasteurella infection in one-day-old chicks. The compounds were administered parenterally or orally after challenge of the chicks with Pasteurella multocida (0.1 ml of a 10^-4 dilution of a twenty-hour tryptose broth culture of an avian P. multocida given subcutaneously). In these tests, unless indicated otherwise, all non-medicated infected chicks died within 24 hours of Pasteurella challenge. In the tests summarized in Table XII, the compounds were administered by subcutaneous injection at a dosage of 30 mg/kg, 1 and 4 hours post-challenge of the chicks with P. multocida. In the tests summarized in Table XIII the compounds were administered in medicated drinking water (at a level of 2 g/gal) available from 4 to 20 hours prior to challenge of the chicks with P. multocida and during the 3 -day test period.
^a Administered in the available drinking water at a concentration of […]

[9] = system: Escherichia coli N10; assay: MIC, standard agar-dilution assay (Table IX); type: cell-based; conditions: read-out: MIC
[10] = system: Streptococcus pneumoniae Park I; assay: MIC, standard agar-dilution assay (Table IX); type: cell-based
[11] = system: Haemophilus influenzae C.L.; assay: MIC, standard agar-dilution assay (Table IX); type: cell-based; conditions: Ampicillin-sensitive strain, read-out: MIC
[12] = system: Klebsiella X26; assay: MIC, standard agar-dilution assay (Table IX); type: cell-based; conditions: read-out: MIC
[13] = system: Staphylococcus aureus X400; assay: MIC, standard agar-dilution assay (Table IX); type: cell-based; conditions: Staphylococcus aureus X400, Methicillin-resistant strain, read-out: MIC
[14] = system: Streptococcus Group D X66; assay: MIC, standard agar-dilution assay (Table IX); type: cell-based; conditions: read-out: MIC
[15] = system: Escherichia coli EC14; assay: MIC, standard agar-dilution assay (Table IX); type: cell-based; conditions: read-out: MIC
[16] = system: Staphylococcus aureus S13E; assay: MIC, standard agar-dilution assay (Table IX); type: cell-based; conditions: Staphylococcus aureus, S13E
[17] = system: Pasteurella multocida; assay: Pasteurella infection in one-day-old chicks, subcutaneous administration (Table XII); type: in vivo; conditions: Administered subcutaneously, 30 mg/kg × 2, 1 and 4 hours post-challenge
Method: as §1
^a Administered subcutaneously; 30 mg/kg × 2

[18] = system: Haemophilus influenzae 76; assay: MIC, standard agar-dilution assay (Table IX); type: cell-based; conditions: Haemophilus influenzae 76, Ampicillin-resistant strain, read-out: MIC
[19] = system: Mycoplasma hyopneumoniae S5972; assay: MIC, broth-dilution microtiter test (Table X); type: cell-based; conditions: Mesomycoplasma hyopneumoniae, read-out: MIC
Description: (§2) The MIC's in Table X were obtained using conventional broth-dilution microtiter tests.

[20] = system: Pasteurella hemolytica 22C; assay: MIC, broth-dilution microtiter test (Table X); type: cell-based; conditions: read-out: MIC
Description: as §2

[21] = system: Staphylococcus aureus; assay: MIC, broth-dilution microtiter test (Table X); type: cell-based; conditions: read-out: MIC
Description: as §2

[22] = system: Pasteurella multocida 17E; assay: MIC, broth-dilution microtiter test (Table X); type: cell-based; conditions: Bovine isolate, read-out: MIC
Description: as §2

[23] = system: Mycoplasma synoviae 40A; assay: MIC, broth-dilution microtiter test (Table X); type: cell-based; conditions: Mycoplasmopsis synoviae, read-out: MIC
Description: as §2

[24] = system: Streptococcus sp. 19F; assay: MIC, broth-dilution microtiter test (Table X); type: cell-based; conditions: read-out: MIC
Description: as §2

[25] = system: Mycoplasma gallisepticum 29C; assay: MIC, broth-dilution microtiter test (Table X); type: cell-based; conditions: Mycoplasmoides gallisepticum, read-out: MIC
Description: as §2

[26] = system: Mycoplasma hyorhinis 29E; assay: MIC, broth-dilution microtiter test (Table X); type: cell-based; conditions: read-out: MIC
Description: as §2

[27] = system: Pasteurella multocida 60A; assay: MIC, broth-dilution microtiter test (Table X); type: cell-based; conditions: Avian isolate, read-out: MIC
Description: as §2

[28] = system: Streptococcus Group D 2041; assay: MIC, standard agar-dilution assay (Table IX); type: cell-based; conditions: GROUPD2041, read-out: MIC
[29] = Titratable groups in 66% aqueous DMF (Tables XIV-XVI); type: physicochemical
Description: ^c Run in 66% aqueous DMF
^d Run in 66% aqueous DMF

[30] = Staphylococcus epidermidis EPI1, agar-dilution, read-out: MIC
[31] = Streptococcus pneumoniae Park I, agar-dilution, read-out: MIC
[32] = Titratable groups (first value)

Structure (SMILES) | MIC [2] | MIC [3] | MIC [4] | MIC [5] | ED50 ([6]; C203, Oral) | ED50 ([6]; C203, sc, Subcutaneous) | Number of Deaths/Number Treated [8] | MIC [9] | MIC [11] | MIC [12] | MIC [13] | MIC [14] | MIC [15] | MIC [16] | Number of Deaths/Number Treated [17] | MIC [18] | MIC [19] | MIC [20] | MIC [21] | MIC [22] | other results
CCC1OC(=O)CC(O)C(C)C(OC2OC(C)C(O)C(N(C)C)C2O)C(CCN2CCCc3ccccc32)CC(C)C(=O)C=CC(C)=CC1COC1OC(C)C(O)C(OC)C1OC (stereo not drawn) [Compound D11, 20-DH-DO-20-(1,2,3,4-Tetrahydroquinolin-1-yl)desmycosin] | 0.25 mg/L (≈ 0.281 µM) | 0.5 mg/L (≈ 0.562 µM) | > 128 mg/L | 0.5 mg/L (≈ 0.562 µM) | 19 mg/kg | 7.5 mg/kg | 8/10 | > 128 mg/L | 64 mg/L (≈ 72 µM) | > 128 mg/L | 0.5 mg/L (≈ 0.562 µM) | 8 mg/L (≈ 9 µM) | > 128 mg/L | 0.5 mg/L (≈ 0.562 µM) | 10/10 | 8 mg/L (≈ 9 µM) | 1.56 mg/L (≈ 1.75 µM) | 25 mg/L (≈ 28.1 µM) | 1.56 mg/L (≈ 1.75 µM) | 12.5 mg/L (≈ 14.1 µM) | MIC [1]: 0.5 mg/L (≈ 0.562 µM); MIC [7, 30]: 0.5 mg/L (≈ 0.562 µM); MIC [10, 31]: 2 mg/L (≈ 2.25 µM); MIC [23]: 0.78 mg/L (≈ 0.877 µM); MIC [24]: 3.12 mg/L (≈ 3.51 µM); MIC [25]: ≤ 0.048 mg/L; MIC [26]: 6.25 mg/L (≈ 7.03 µM); MIC [27]: 50 mg/L (≈ 56.2 µM); MIC [28]: 8 mg/L (≈ 9 µM)
CCC1OC(=O)CC(O)C(C)C(OC2OC(C)C(O)C(N(C)C)C2O)C(CCN2CC3(C)CC2CC(C)(C)C3)CC(C)C(=O)C=CC(C)=CC1COC1OC(C)C(O)C(OC)C1OC (stereo not drawn) [Compound D21, 20-DH-DO-20-[1,3,3-trimethyl-6-azabicyclo[3.2.1]octan-6-yl]desmycosin] | 0.5 mg/L (≈ 0.55 µM) | 1 mg/L (≈ 1.1 µM) | 32 mg/L (≈ 35.2 µM) | 1 mg/L (≈ 1.1 µM) | 10 mg/kg | 1 mg/kg | 3/10 | 64 mg/L (≈ 70.4 µM) | 32 mg/L (≈ 35.2 µM) | 64 mg/L (≈ 70.4 µM) | 1 mg/L (≈ 1.1 µM) | 4 mg/L (≈ 4.4 µM) | 64 mg/L (≈ 70.4 µM) | 1 mg/L (≈ 1.1 µM) | 7/10 | 16 mg/L (≈ 17.6 µM) | 0.195 mg/L (≈ 0.214 µM) | 3.12 mg/L (≈ 3.43 µM) | 0.78 mg/L (≈ 0.858 µM) | 3.12 mg/L (≈ 3.43 µM) | MIC [1]: 0.5 mg/L (≈ 0.55 µM); MIC [7, 30]: 1 mg/L (≈ 1.1 µM); MIC [10, 31]: 0.5 mg/L (≈ 0.55 µM); pKa ([29]; Titratable groups): 9.7; pKa [29, 32]: 8; MIC [23]: 0.39 mg/L (≈ 0.429 µM); MIC [24]: 1.56 mg/L (≈ 1.72 µM); MIC [25]: 1.56 mg/L (≈ 1.72 µM); MIC [27]: 3.12 mg/L (≈ 3.43 µM); MIC [28]: 8 mg/L (≈ 8.8 µM)
CCC1OC(=O)CC(O)C(C)C(OC2OC(C)C(O)C(N(C)C)C2O)C(CCN2CCCC3CCCCC32)CC(C)C(=O)C=CC(C)=CC1COC1OC(C)C(O)C(OC)C1OC (stereo not drawn) [Compound D20, 20-DH-DO-20-(decahydroquinolin-1-yl)desmycosin] | 0.25 mg/L (≈ 0.279 µM) | 0.5 mg/L (≈ 0.559 µM) | 32 mg/L (≈ 35.7 µM) | 0.5 mg/L (≈ 0.559 µM) | 34 mg/kg | 1.7 mg/kg | 0/10 | 128 mg/L (≈ 143 µM) | 16 mg/L (≈ 17.9 µM) | 16 mg/L (≈ 17.9 µM) | 0.5 mg/L (≈ 0.559 µM) | 8 mg/L (≈ 8.94 µM) | 128 mg/L (≈ 143 µM) | 0.5 mg/L (≈ 0.559 µM) | – | 16 mg/L (≈ 17.9 µM) | 0.78 mg/L (≈ 0.871 µM) | 3.12 mg/L (≈ 3.49 µM) | 0.78 mg/L (≈ 0.871 µM) | 3.12 mg/L (≈ 3.49 µM) | MIC [1]: 0.25 mg/L (≈ 0.279 µM); MIC [7, 30]: 0.5 mg/L (≈ 0.559 µM); MIC [10, 31]: 0.12 mg/L (≈ 0.134 µM); pKa ([29]; Titratable groups): 9.4; pKa [29, 32]: 7.9; MIC [23]: 0.195 mg/L (≈ 0.218 µM); MIC [24]: 3.12 mg/L (≈ 3.49 µM); MIC [25]: 0.78 mg/L (≈ 0.871 µM); MIC [26]: 50 mg/L (≈ 55.9 µM); MIC [27]: 3.12 mg/L (≈ 3.49 µM); MIC [28]: 8 mg/L (≈ 8.94 µM)
CCC1OC(=O)CC(O)C(C)C(OC2OC(C)C(O)C(N(C)C)C2O)C(CCN2CC3CCC(CC3)C2)CC(C)C(=O)C=CC(C)=CC1COC1OC(C)C(O)C(OC)C1OC (stereo not drawn) [Compound D14, 20-DH-DO-20-[3-azabicyclo[3.2.2]nonan-3-yl]desmycosin] | 0.12 mg/L (≈ 0.136 µM) | 0.25 mg/L (≈ 0.284 µM) | 16 mg/L (≈ 18.2 µM) | 0.25 mg/L (≈ 0.284 µM) | 50 mg/kg | 1 mg/kg | 0/10 | 32 mg/L (≈ 36.3 µM) | 4 mg/L (≈ 4.54 µM) | 8 mg/L (≈ 9.08 µM) | 0.5 mg/L (≈ 0.567 µM) | 4 mg/L (≈ 4.54 µM) | 32 mg/L (≈ 36.3 µM) | 0.25 mg/L (≈ 0.284 µM) | 2/10 | 8 mg/L (≈ 9.08 µM) | 0.78 mg/L (≈ 0.885 µM) | 1.56 mg/L (≈ 1.77 µM) | 0.78 mg/L (≈ 0.885 µM) | 3.12 mg/L (≈ 3.54 µM) | MIC ([7]; Staphylococcus epidermidis, EPI1): 0.5 mg/L (≈ 0.567 µM); MIC ([10]; Streptococcus pneumoniae): 0.5 mg/L (≈ 0.567 µM); pKa ([29]; Titratable groups): 9.2; pKa [29, 32]: 7.9; MIC [23]: 0.39 mg/L (≈ 0.443 µM); MIC [24]: 1.56 mg/L (≈ 1.77 µM); MIC [25]: 1.56 mg/L (≈ 1.77 µM); MIC [26]: 50 mg/L (≈ 56.7 µM); MIC [27]: 3.12 mg/L (≈ 3.54 µM); MIC [28]: 4 mg/L (≈ 4.54 µM)
CCC1OC(=O)CC(O)C(C)C(OC2OC(C)C(O)C(N(C)C)C2O)C(CCN2CC3CCCCC3C2)CC(C)C(=O)C=CC(C)=CC1COC1OC(C)C(O)C(OC)C1OC (stereo not drawn) [Compound D45] | – | – | – | – | – | – | 1/10 | – | – | – | – | – | – | – | 0/10 | – | – | – | – | – | –
CCC1OC(=O)CC(O)C(C)C(OC2OC(C)C(O)C(N(C)C)C2O)C(CCN2CC3CCC(C)(C2)C3(C)C)CC(C)C(=O)C=CC(C)=CC1COC1OC(C)C(O)C(OC)C1OC (stereo not drawn) [Compound D47] | – | – | – | – | – | – | 6/10 | – | – | – | – | – | – | – | 0/10 | – | – | – | – | – | –
